The values below come from patent US20060182805A1, “Dosage form and method for sustained release of substituted pyrazine compound” (Jazz Pharmaceuticals, priority 2005, published 2006).

SMILES strings stand for the structures. Like-named read-outs stand apart in the source and are kept apart here. Bounds are passed on as bounds.

Series [1] can be described thus: In vitro release rate (dissolution) from dosage forms, FIG. 3-5. It counts as physicochemical. The procedure: By “dissolution rate” or “release rate” is intended the amount of active agent released in vitro from a dosage form per unit time into a release medium, usually in units of milligrams per hour (mg/hr). In vitro release rates are performed on dosage forms placed in metal coil sample holders attached to a USP Type VII bath indexer in a constant temperature water bath at 37° C. In addition, other appropriate dissolution test apparatuses may be suitable, such as, USP apparatus I or II. Aliquots of the release rate solutions are injected into a chromatographic system to quantify the amounts of drug released during each testing interval. According to the invention, between 2 and 50% of the dose is released following two hours after exposure of the dosage form to the environment of use. These dissolution rates may be between 2 and 60% or 10 and 50% within the first 4 hours, between about 20 and 80% or 35 and 70% from 4 hours to about 8 hours following exposure to the environment of use between about 35 and 95% or 45 and 85% from 8 hours to about 12 hours following exposure to the environment of use and greater than 50 to 80% or greater than 90% following 12 hours after exposure to the environment of use and greater than 90% following 22 hours after exposure to the environment of use.

The nature of series [2]: Pharmacokinetics of the drug after single oral dose (volume of distribution, half lives). In kind it is in vivo. The settings on record: for half-life: human, plasma, oral. The procedure:
In this case, the drug is eliminated rapidly from the plasma via distribution into other tissues as well as through metabolism and excretion into the urine. The rapid elimination makes it necessary to deliver the drug into the GI tract for extended periods of time, up to about 24 hours. It may also require that the drug be delivered in an ascending profile such as that shown in this FIG. 5. Such ascending profile may be accomplished by increasing the dose from an initial dose in two to five increments to achieve a desired maximum dose or by delivering a dosage form with an ascending profile for the initial two to five doses. Such doses may be delivered every 24 hours or every 12 hours.
A steady state plasma profile occurs after the administration of two to three doses. The achievement of steady state with the desirable Cmax/Cmin ratio after the administration of very few doses is advantageous in that therapeutic levels are achieved in a short time and maintained thereafter. Rapid attainment of steady state allows for faster increases or decreases in dose without unwanted side effects and the resultant titration to a therapeutically effective dose and, if necessary, withdrawal of therapy. The Cmax/Cmin ratio at steady state is less than 3, often less than 2, often less than 1.5 and between 1.0 and 2.

For `Nc1cnc(-c2cc(Cl)cc(Cl)c2Cl)c(N)n1` [3-(2,3,5-trichloro-phenyl)-pyrazine-2,6-diamine], the “period of release, controlled and increasing dose” value in series [1] (ascending release profile, FIG. 5) worked out at 24 h. The “period of release of active agent” value in series [1] (first-order release profile, FIG. 4) is “about 20 hours”; in series [1] (zero-order release profile, FIG. 3), “about 20 hours”. Besides, the amount released in series [1] (first-order release profile, after 11 hours, FIG. 4) is listed as 90%; in series [1] (zero-order release profile, after 16 hours, FIG. 3), 90%. The half-life in series [2] (read-out: final half life of the drug) was 10 to 13 h; in series [2] (read-out: initial half life of the drug) it was less than 5 h. Moreover, the “volume of distribution (Vd)” value in series [2] (single oral dose) was “about 640 liters”.

As a reminder, the half-life is the time needed for the level to fall by half in the phase considered.
